From patent US20180064808A1, “COMBINATION THERAPY OF BISPECIFIC ANTIBODIES SPECIFIC FOR FAP AND DR5 AND CHEMOTHERAPEUTIC AGENTS” (Hoffmann-La Roche Inc., priority 2014, published 2018)

Tests used:
[1] = clinical studies; cited from earlier work
FcγR mutant mice = details: cited from earlier work
Aspc1 = assay: Combination screen PDAC cell lines (CellTiter-Glo); format: cell-based; details: Aspc1
Description: (§1) A panel of CRC and PDAC cell lines was assessed and combination partners of potential clinical relevance for the respective tumor indications were used for evaluation of combination effects (CRC: irinotecan, oxaliplatin, 5-FU, MDM2 inhibitor (RG7388), Bcl-2 inhibitor (ABT199); PDAC: Abraxane, Paclitaxel, Gemcitabine, Doxorubicin, MDM2i (RG7388), Bc12i (ABT199), Bortezomib, Cyclopamine, PARP inhibitor (PJ34)).
(§2) Cells were seeded (numbers vary depending on the cell line) in black 96-well microplate with clear, flat bottom and incubated overnight at 37° C. and 5% CO2. After checking the adherence/confluence of cells, the medium was removed and 100 μl of fresh medium containing the corresponding compound was added to each well. A sequential dilution series (1:4) of 8 concentrations per compound (n=3) were used. Corresponding DMSO concentration and media alone were used as controls.
(§3) After incubation for 3 days at 37° C. and 5% CO2, 100 μl per well CellTiter-Glo reagent (Promega) was added to the plate. Luminescence was measured after 30 minutes agitation at room temperature. IC50-values were calculated with XL-Fit software. Each experiment with one compound was repeated at least twice.
(§4) Cells were seeded (numbers vary depending on the cell line) in black 96-well microplate with clear, flat bottom and incubated overnight at 37° C. and 5% CO2. After checking the adherence/confluence of cells, the medium was removed and 100 μl of fresh medium containing the corresponding compound or combination was added to each well.
(§5) A sequential 1:3 dilution series of 9 concentrations of Drozitumab/anti-human-Fc was done on a 96-well PP-V-bottom microplate (n=6). […] 25 μl/well of the Drozitumab/anti-human-Fc series were then transferred to the cells.
(§6) After incubation for 3 days at 37° C. and 5% CO2 100 μl per well CellTiter-Glo reagent (Promega) were given to the plates. Luminescence was measured after 30 minutes agitation at room temperature.
(§7) For each concentration of Drozitumab/anti-human-Fc and Drozitumab/anti-human-Fc+compound triplicates were done on the same plate and each experiment was repeated at least twice.

Bxpc3 = assay: Combination screen PDAC cell lines (CellTiter-Glo); format: cell-based; details: Bxpc3
Description: as §1, §2, §3, §4, §5, §6, §7

Capan2 = assay: Combination screen PDAC cell lines (CellTiter-Glo); format: cell-based; details: Capan2
Description: as §1, §2, §3, §4, §5, §6, §7

Panc1 = assay: Combination screen PDAC cell lines (CellTiter-Glo); format: cell-based; details: Panc1
Description: as §1, §2, §3, §4, §5, §6, §7

[2] = tested on: LOX-IMVI desmoplastic melanoma xenograft; assay: LOX-IMVI desmoplastic melanoma cell line based xenograft model; format: in vivo, nude mice; details: doxorubicin alone 5 mg/kg q7d
Text: The in vivo antitumor efficacy of the bispecific antibody DR5-FAP (DR5 binder: VH SEQ ID NO.:7, VL SEQ ID NO.: 8, FAP binder: VH SEQ ID NO.:15, VL SEQ ID NO.: 16) could be detected in cell and fragment based patient derived (PDX) models of various tumor origin (e.g. CRC, pancreatic cancer, desmoplastic melanoma and sarcoma) transplanted on nude mice. As example data for combination efficacy of bispecific antibody DR5-FAP (DR5 binder: VH SEQ ID NO.:7, VL SEQ ID NO.: 8, FAP binder: VH SEQ ID NO.:15, VL SEQ ID NO.: 16) and chemotherapeutics that activate the intrinsic apoptosis pathway are shown for the CRC xenograft model DLD-1 and HCT116 (cell line based, co-injection model) and Co5896 (fragment based).
The bispecific antibody DR5-FAP (DR5 binder: VH SEQ ID NO.:7, VL SEQ ID NO.: 8, FAP binder: VH SEQ ID NO.:15, VL SEQ ID NO.: 16) was provided as stock solution from Roche, Penzberg, Germany. Antibody buffer included histidine. Antibody solution was diluted appropriately in buffer from stock prior injections. An Fc mutant of the prior art DR5 specific antibody Drozitumab was provided as stock solution from Roche, Penzberg, Germany. This antibody comprises three amino acid substitutions in the Fc domain that abolish binding to an activating or inhibitory Fc receptor and/or effector function wherein said amino acid substitutions are L234A, L235A and P329G. […]

[3] = tested on: Sarc4605 sarcoma xenograft; assay: Sarc4605 sarcoma fragment based patient derived xenograft model (PDX); format: in vivo, nude mice; details: doxorubicin alone 5 mg/kg q7d
[4] = second figure of mono/combo, n.s. = not significant

Row | Fold change IC50 (DR5 ab mono vs combo) (Aspc1; n.s. = not significant) | IC50 (Aspc1; Homo sapiens, 72 h, agent alone, 3 days, read-out: IC50 monotherapy) | Fold change IC50 (DR5 ab mono vs combo) (Bxpc3; n.s. = not significant) | IC50 (Bxpc3; Homo sapiens, BXPC-3, 72 h, agent alone, 3 days, read-out: IC50 monotherapy) | IC50 (Panc1; Homo sapiens, PANC-1, 72 h, agent alone, 3 days, read-out: IC50 monotherapy) | Fold change IC50 (DR5 ab mono vs combo) (Panc1; n.s. = not significant) | Compound | maximally tolerated dose (MTD) [1] | in vivo activity (FcγR mutant mice) | % max. inhibition (combo) (Aspc1; [4]) | % max. inhibition (mono) (Bxpc3; first figure of mono/combo) | % max. inhibition (combo) (Bxpc3; [4]) | % max. inhibition (combo) (Capan2; [4]) | IC50 (Capan2; Homo sapiens, Capan-2, 72 h, agent alone, 3 days, read-out: IC50 monotherapy) | % max. inhibition (combo) (Panc1; [4]) | tumor growth inhibition [2] | tumor growth inhibition [3]
1 | – | – | – | – | – | – | Drozitumab: fully human DR5 agonistic antibody described in US2007/0031414 and WO 2006/083971 | > 20 mg/kg | inactive | – | – | – | – | – | – | – | –
2 | 5 | 0.3 µM | 2 | 4 µM | 0.62 µM | n.s. | COc1cccc2c1C(=O)c1c(O)c3c(c(O)c1C2=O)C[C@@](O)(C(=O)CO)C[C@@H]3O[C@H]1C[C@H](N)[C@H](O)[C@H](C)O1 [Doxorubicin, (7S,9S)-7-[(2R,4S,5S,6S)-4-amino-5-hydroxy-6-methyloxan-2-yl]oxy-6,9,11-trihydroxy-9-(2-hydroxyacetyl)-4-methoxy-8,10-dihydro-7H-tetracene-5,12-dione] | – | – | n.s. | 25% | 70% | n.s. | 1.5 µM | n.s. | 77% | 77%
